In ChEMBL document CHEMBL1127960, “Latent leishmanicidal activity of quinazolinones and 1,2,4-triazoloquinazolinones” (1994):

tested on: Leishmania donovani; test: In vitro leishmanicidal activity against promastigotes of Leishmania donovani at 100 ug/ml concentration; assay type: functional

First: CCn1c(=O)c2cc(OC)ccc2n2c(CCl)nnc12
Second: CCn1c(=O)c2cc(OC)ccc2n2c(S)nnc12
The “Leishmanicidal activity (% promastigotes killed)” value of the first is lower: 67% for the first, 80% for the second.

First: Cn1c(=O)c2ccc(Cl)cc2n2c(CSC3=NCCN3)nnc12
Second: CCn1c(=O)c2ccc(Cl)cc2n2c(CSC3=NCCN3)nnc12
The “Leishmanicidal activity (% promastigotes killed)” value of the first is higher: 35% for the first, 24% for the second.

Going from `Cn1c(=O)c2ccc(Cl)cc2n2c(CCl)nnc12` to `CCn1c(=O)c2ccc(Cl)cc2n2c(CCl)nnc12`, the “Leishmanicidal activity (% promastigotes killed)” value falls from 95% to 70%.

Going from `Cn1c(=O)c2ccc(Cl)cc2n2c(S)nnc12` to `CCn1c(=O)c2ccc(Cl)cc2n2c(S)nnc12`, the “Leishmanicidal activity (% promastigotes killed)” value falls from 55% to 30%.

First: CCn1c(=O)c2cc(OC)ccc2n2cnnc12
Second: CCn1c(=O)c2cc(OC)ccc2n2c(C)nnc12
The “Leishmanicidal activity (% promastigotes killed)” value of the first is lower: 39% for the first, 42% for the second.

Compared with `CCn1c(=O)c2ccc(Cl)cc2n2c(C)nnc12`, `CCn1c(=O)c2ccc(Cl)cc2n2cnnc12` is lower in “Leishmanicidal activity (% promastigotes killed)” value: 49% for the first, 19% for the second.

`CCOC(=O)c1c(SC)nn(-c2nc3cc(Cl)ccc3c(=O)n2C)c1N` and `CCOC(=O)c1c(SC)nn(-c2nc3cc(Cl)ccc3c(=O)n2CC)c1N` are the same in “Leishmanicidal activity (% promastigotes killed)” value: 0% for the first, 0% for the second.

First: Cn1c(=O)c2ccc(Cl)cc2n2cnnc12
Second: CSc1nc2cc(Cl)ccc2c(=O)n1C
The “Leishmanicidal activity (% promastigotes killed)” value of the first is higher: 81% for the first, 0% for the second.

First: CCn1c(=S)[nH]c2ccc(OC)cc2c1=O
Second: CCn1c(NN)nc2ccc(OC)cc2c1=O
The “Leishmanicidal activity (% promastigotes killed)” value of the first is higher: 12% for the first, 0% for the second.

Compared with `CCn1c(SCc2nnc3n(CC)c(=O)c4ccc(Cl)cc4n23)nc2ccc(OC)cc2c1=O`, `CCn1c(SCc2nnc3n(C)c(=O)c4ccc(Cl)cc4n23)nc2ccc(OC)cc2c1=O` is higher in “Leishmanicidal activity (% promastigotes killed)” value: 0% for the first, 10% for the second.
